Tests used:
TXA2 synthetase = biological target: T1, TXA2 synthetase (Homo sapiens, UniProt P24557); experiment: Inhibition of TXA2 synthetase; format: biochemical; conditions: aspirin treated human platelet microsome, PGH2 as substrate, 25° C., TXB2 measured by radioimmunoassay; read-out: IC50 (Inhibition concentration of TXB2 generation by 50%)
T1 construct: human platelet microsome; purchased Ran Biochem, Israel; host or cells: human platelet microsomes, aspirin treated (APM)
T1 sequence (P24557 1-533): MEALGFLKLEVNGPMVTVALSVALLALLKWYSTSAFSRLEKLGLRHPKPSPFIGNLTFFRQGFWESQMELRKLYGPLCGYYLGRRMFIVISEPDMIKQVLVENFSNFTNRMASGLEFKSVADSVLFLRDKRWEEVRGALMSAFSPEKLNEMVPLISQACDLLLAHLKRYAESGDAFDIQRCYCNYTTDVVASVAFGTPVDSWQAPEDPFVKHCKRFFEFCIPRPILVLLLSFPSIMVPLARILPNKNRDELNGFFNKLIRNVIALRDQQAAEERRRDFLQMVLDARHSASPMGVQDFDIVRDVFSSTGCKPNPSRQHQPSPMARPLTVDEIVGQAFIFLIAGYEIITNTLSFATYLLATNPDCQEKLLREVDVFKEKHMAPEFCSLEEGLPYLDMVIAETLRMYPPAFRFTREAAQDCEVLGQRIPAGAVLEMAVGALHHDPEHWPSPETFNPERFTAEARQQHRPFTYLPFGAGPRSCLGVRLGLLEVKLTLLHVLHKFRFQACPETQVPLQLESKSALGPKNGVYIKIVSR
Procedure: Aspirin treated human platelet microsome APM, Ran Biochem, Israel) was used as a source of TXA2 synthetase. APM was suspended in 50 mM Tris/100 mM NaCl buffer (pH 7.5). 10 μl of test compound solution was added to 90 μl of APM suspension and incubated at 25° C. for 3 min. And then, 2 μl of PGH2 (10 μg/ml in aceton, Ran Biochem.) was added. After 3-min incubation period, the reaction was terminated by adding 10 μl of FeCl2 solution (25 mM in H2 O), and set aside at room temperature for 15 min and then on ice. The reaction mixture was centrifuged at 10000 rpm for 5 min at 4° C. TXB2 in the supernatant was measured by radioimmunoassay. IC50 (Inhibition concentration of TXB2 generation by 50%) were graphically determined.

[1] = tested on: human platelet aggregation induced by U46619; experiment: Inhibition of human platelet aggregation induced by U46619; format: cell-based; conditions: human platelet rich plasma, U46619 final 1.0 μM, 37° C.; read-out: IC50 (Inhibition concentration of platelet aggregation by 50%)
Procedure: In the following test, the used 9,11-methanoepoxy PGH2 (U46619) is characterized pharmacologically as TXA2 mimetic agent and widely used for evaluating TXA2 antagonism of test compounds (for example, vide The Journal of Pharmacology and Experimental Therapeutics Vol. 234, pp 435-441).
Human blood was obtained from healthy male volunteers and mixed with 3.8% (w/v) sodium citrate in a ratio of 9:1. Platelet rich plasma (PRP) was prepared from the citrated blood by centrifugation at 150×g for 15 min. Platelet aggregation in PRP was studied photometrically using an aggregometer (NKK HAEMATRACER 1 . To the 225 μl of PRP, 25 μl of test compound solution was added, and then stirred at 1000 rpm for 2 min at 37° C. To the solution, 5 μl of U46619 (final 1.0 μM) was added as an aggregating inducer. IC50 (Inhibition concentration of platelet aggregation by 50% were determined graphically.

- IC50 (TXA2 synthetase): 0.046 µM
- IC50 [1]: 0.27 µM
SMILES: O=C(O)CCC/C=C\[C@@H]1C[C@@H](NS(=O)(=O)c2ccc(Cl)cc2)CN1Cc1cccnc1 [test compound (1), (2S,4R)-2-[(Z)-5-Carboxy-1-pentenyl]-4-(4-chlorophenylsulfonylamino)-1-(3-pyridylmethyl)pyrrolidine]

— patent publication US5130323A, “Pyrrolidine derivatives” (Fujisawa Pharmaceutical Co., Ltd., priority 1988, dated 1992)
